Experimental data reported in the NIST ThermoML archive (doi:10.1016/j.fluid.2015.07.030).

Test: refractive index (other wavelength) (dimensionless); xn = mol fraction of the nth substance listed
Settings: 95.99 kPa, Liquid, Standard Abbe refractometry

OCCOCCOCCO [triethylene glycol] + O
refractive index
Settings	Wavelength=404.7 nm	Wavelength=435.8 nm	Wavelength=486.1 nm	Wavelength=546.1 nm	Wavelength=587.6 nm	Wavelength=589.3 nm	Wavelength=632.8 nm	Wavelength=644 nm	Wavelength=706.5 nm
303.15 K, x2 = 0	–	–	–	–	–	1.45267	1.4511	1.45075	1.44903
303.15 K, x2 = 0.1056	–	–	–	–	–	1.45131	1.44977	1.44941	1.44768
303.15 K, x2 = 0.2069	–	–	–	–	–	1.44969	1.44815	1.4478	1.44609
303.15 K, x2 = 0.3104	–	–	–	–	–	1.44605	1.44452	1.44417	1.44246
303.15 K, x2 = 0.4844	–	–	–	–	–	1.44261	1.44109	1.44075	1.43906
303.15 K, x2 = 0.5016	–	–	–	–	–	1.44163	1.44012	1.43978	1.4381
303.15 K, x2 = 0.5952	–	–	–	–	–	1.43507	1.43356	1.43321	1.43153
303.15 K, x2 = 0.6016	–	–	–	–	–	1.43519	1.43369	1.43334	1.43165
303.15 K, x2 = 0.6788	–	–	–	–	–	1.42871	1.42724	1.42689	1.4252
303.15 K, x2 = 0.7835	–	–	–	–	–	1.41945	1.41799	1.41765	1.41598
303.15 K, x2 = 0.8184	–	–	–	–	–	1.41428	1.41284	1.41249	1.41081
303.15 K, x2 = 0.8473	–	–	–	–	1.40803	1.40797	1.40655	1.4062	1.40454
303.15 K, x2 = 0.8719	–	–	–	–	1.40124	1.40118	1.39977	1.39943	1.39777
303.15 K, x2 = 0.8926	–	–	–	–	1.39369	1.39363	1.39224	1.39191	1.39029
303.15 K, x2 = 0.9106	–	–	–	–	1.38817	1.38811	1.38673	1.38639	1.38476
303.15 K, x2 = 0.9254	–	–	–	–	1.37798	1.37792	1.37655	1.37622	1.37461
303.15 K, x2 = 0.9303	–	–	–	–	1.37934	1.37928	1.37792	1.37759	1.37597
303.15 K, x2 = 0.9391	–	–	–	–	1.37533	1.37531	1.37393	1.37361	1.37201
303.15 K, x2 = 0.951	–	–	–	–	1.36879	1.36873	1.36739	1.36708	1.36548
303.15 K, x2 = 0.9599	–	–	–	–	1.36294	1.36288	1.36155	1.36123	1.35966
303.15 K, x2 = 0.9708	–	–	–	–	1.35503	1.35497	1.35367	1.35335	1.35178
303.15 K, x2 = 0.979	–	–	–	–	1.35005	1.34999	1.34869	1.34838	1.34683
303.15 K, x2 = 0.9867	–	–	–	–	1.34407	1.34402	1.34275	1.34244	1.34092
303.15 K, x2 = 0.9936	–	–	–	–	1.33792	1.33786	1.3366	1.3363	1.33481
308.15 K, x2 = 0	1.46397	1.46043	1.45629	1.45285	1.45106	1.45099	1.44945	1.44909	1.44737
308.15 K, x2 = 0.1056	1.46262	1.4591	1.45496	1.45153	1.44974	1.44967	1.44814	1.44778	1.44608
308.15 K, x2 = 0.2069	1.46101	1.4575	1.45334	1.44996	1.44816	1.44809	1.44655	1.44621	1.4451
308.15 K, x2 = 0.3104	1.45847	1.45498	1.45085	1.44745	1.44566	1.44561	1.44407	1.44392	1.44202
308.15 K, x2 = 0.4844	1.45365	1.45024	1.44616	1.44282	1.44105	1.44098	1.43947	1.43913	1.43745
308.15 K, x2 = 0.5016	1.45268	1.44927	1.4452	1.44188	1.44011	1.44065	1.43853	1.43819	1.43653
308.15 K, x2 = 0.5952	1.44587	1.44251	1.43858	1.43529	1.43357	1.4335	1.43202	1.43167	1.42998
308.15 K, x2 = 0.6016	1.44608	1.44288	1.43766	1.43458	1.43283	1.43274	1.43225	1.43191	1.43023
308.15 K, x2 = 0.6788	1.43943	1.43608	1.43224	1.42901	1.42731	1.42725	1.42577	1.42543	1.42374
308.15 K, x2 = 0.7835	1.43059	1.42735	1.42362	1.42052	1.41887	1.4188	1.41735	1.41701	1.41536
308.15 K, x2 = 0.8184	1.4247	1.42147	1.41778	1.41468	1.41303	1.41297	1.41153	1.41118	1.40951
308.15 K, x2 = 0.8473	1.41822	1.41506	1.41139	1.40833	1.40675	1.40666	1.40524	1.4049	1.40326
308.15 K, x2 = 0.8719	1.41127	1.40816	1.40459	1.40157	1.39999	1.39993	1.39853	1.39819	1.39653
308.15 K, x2 = 0.8926	1.40352	1.40046	1.39696	1.39401	1.39245	1.39239	1.39102	1.39069	1.38904
308.15 K, x2 = 0.9106	1.39814	1.3951	1.39162	1.38868	1.38711	1.38705	1.38567	1.38534	1.38371
308.15 K, x2 = 0.9254	1.38807	1.38515	1.38181	1.37898	1.37744	1.37739	1.37602	1.37569	1.37409
308.15 K, x2 = 0.9303	1.38901	1.38605	1.38268	1.37985	1.37833	1.37828	1.37692	1.37659	1.37498
308.15 K, x2 = 0.9391	1.38539	1.38243	1.37908	1.37624	1.37471	1.37465	1.37329	1.37297	1.37137
308.15 K, x2 = 0.951	1.37872	1.37585	1.37256	1.36977	1.36826	1.36821	1.36686	1.36654	1.36496
308.15 K, x2 = 0.9599	1.37231	1.3695	1.36628	1.36351	1.36202	1.36197	1.36065	1.36033	1.35875
308.15 K, x2 = 0.9708	1.36448	1.36175	1.35858	1.35587	1.35442	1.35436	1.35307	1.35275	1.35119
308.15 K, x2 = 0.979	1.35959	1.3569	1.35382	1.35111	1.34968	1.34963	1.34835	1.34803	1.34647
308.15 K, x2 = 0.9867	1.35319	1.35054	1.34746	1.34481	1.34338	1.34332	1.34205	1.34175	1.34023
308.15 K, x2 = 0.9936	1.34702	1.34444	1.34138	1.33876	1.33735	1.3373	1.33605	1.33576	1.33425
313.15 K, x2 = 0	1.46216	1.45863	1.45448	1.45106	1.44927	1.4492	1.44766	1.44731	1.44561
313.15 K, x2 = 0.1056	1.46096	1.45744	1.4533	1.4499	1.44812	1.44806	1.44652	1.44616	1.44445
313.15 K, x2 = 0.2069	1.45931	1.45583	1.45169	1.44831	1.44653	1.44647	1.44494	1.44459	1.44288
313.15 K, x2 = 0.3104	1.45682	1.45335	1.44921	1.44581	1.44397	1.44244	1.44209	1.44136	1.4404
313.15 K, x2 = 0.4844	1.45391	1.45049	1.44639	1.44305	1.44124	1.44046	1.43954	1.43899	1.43766
313.15 K, x2 = 0.5016	1.45102	1.44762	1.44358	1.44028	1.43853	1.43847	1.43695	1.43661	1.43492
313.15 K, x2 = 0.5952	1.44431	1.44094	1.43703	1.43376	1.43204	1.43197	1.43049	1.43015	1.42848
313.15 K, x2 = 0.6016	1.44384	1.44387	1.43615	1.43304	1.43132	1.43126	1.43021	1.42952	1.42809
313.15 K, x2 = 0.6788	1.43802	1.43469	1.43086	1.42768	1.42601	1.42559	1.42446	1.42411	1.42243
313.15 K, x2 = 0.7835	1.42903	1.42572	1.42205	1.41893	1.41728	1.41722	1.41578	1.41543	1.41372
313.15 K, x2 = 0.8184	1.42287	1.41965	1.41597	1.41287	1.41125	1.41119	1.40976	1.40942	1.40776
313.15 K, x2 = 0.8473	1.4172	1.41405	1.41039	1.40736	1.40575	1.40569	1.40427	1.40394	1.40231
313.15 K, x2 = 0.8719	1.41026	1.40715	1.40359	1.40061	1.39902	1.39896	1.39756	1.39723	1.39559
313.15 K, x2 = 0.8926	1.40276	1.39972	1.39624	1.39332	1.39177	1.39171	1.39035	1.39002	1.3884
313.15 K, x2 = 0.9106	1.39726	–	1.39088	1.38799	1.38648	1.38642	1.38508	1.38475	1.38313
313.15 K, x2 = 0.9254	1.38778	1.38484	1.38148	1.37865	1.37712	1.37706	1.37569	1.37537	1.37376
313.15 K, x2 = 0.9303	1.38834	1.38538	1.38203	1.3792	1.37769	1.37763	1.37629	1.37596	1.37435
313.15 K, x2 = 0.9391	1.38513	1.38218	1.37884	1.37598	1.37445	1.3744	1.37305	1.37272	1.37112
313.15 K, x2 = 0.951	1.37841	1.37555	1.37228	1.36949	1.36803	1.36794	1.36662	1.3663	1.36471
313.15 K, x2 = 0.9599	1.37093	1.36813	1.36494	1.36219	1.36072	1.36066	1.35936	1.35904	1.35747
313.15 K, x2 = 0.9708	1.36388	1.36116	1.35801	1.35533	1.35388	1.35383	1.35253	1.35221	1.35066
313.15 K, x2 = 0.979	1.35918	1.3565	1.35339	1.35071	1.34929	1.34923	1.34796	1.34764	1.3461
313.15 K, x2 = 0.9867	1.35221	1.34957	1.34651	1.34386	1.34243	1.34238	1.34111	1.34081	1.33932
313.15 K, x2 = 0.9936	1.34633	1.34376	1.34073	1.33811	1.3367	1.33665	1.3354	1.3351	1.33361
